{"source": "patent US8110399B2", "about": "“Stem cells of the islets of langerhans and their use in treating diabetes mellitus” (The General Hospital Corporation, priority 1999, dated 2012)", "key": {"[1]": {"system": "NIP cultures", "experiment": "Immunocytochemical detection of differentiation of NIPs", "type": "cell-based, human", "conditions": "for Idx-1 immunostaining / insulin immunostaining: NIP cultures expanded 7-10 days, then treated", "experimental": "Nestin-positive pancreatic islet stem cells were analyzed for GLP-1R expression. Human islet tissue was obtained from the Juvenile Diabetes Research Center for Islet Transplantation, Harvard Medical School. NIPs were isolated as described previously (Zulewski, et al., 2001, Diabetes 50: 521). Briefly, islets were washed and cultured in RPMI 1640 medium containing serum, 11.1 mM glucose, antibiotics, sodium pyruvate, β-mercaptoethanol, and growth factors. Within several days, nestin-positive cells (identified immunocytochemically as described above) grew out from the islets. Later, these cells were cloned and expanded in medium containing 20 ng/ml of basic fibroblast growth factor and epidermal growth factor or 1000 units of recombinant human leukemia inhibitory factor. Incubation with GLP-1 was administered in the absence of serum and fresh peptide was added every 48 h without changing the medium.\nImmunocytochemical detection of GLP-1R was performed using rabbit polyclonal antisera (Heller et al., supra) as follows. Cells cultured on Lab-Tek chamber slides (Nunc, Naperville, Ill.) or gridded coverslips (Bellco Glass, NJ) were fixed with 4% paraformaldehyde in PBS for 10 minutes at room temperature. After several rinses in PBS, cells were blocked with normal donkey serum for 30 minutes and incubated with primary antisera or pre-immune sera at 4° C. The following day, cells were rinsed with PBS and incubated with secondary antisera (donkey anti-rabbit and donkey anti-guinea pig) labeled with Cy-3 or Cy-2 for 1 hour at room temperature. After several washes, coverslips containing cells were mounted onto slides in mounting medium containing DAPI (Vector Laboratories, Burlingame, Calif.) which stains nuclei. Fluorescence images were obtained using a Zeiss epifluorescence microscope equipped with an Optronics TEC-470 CCD camera (Optronics Engineering, Goleta, Calif.) interfaced with a Powermac 7100. IP lab Spectrum software (Signal Analytics, Vienna, Va.) was used to acquire and analyze images.\nNIPs were picked from islet cultures and expanded in growth medium containing bFGF plus EGF (passage 01) for 3-10 days (Zulewski et al., 2001 Diabetes 50: 521). In certain instances NIPOs that were expanded for 3-5 days were fixed and subjected to immunocytochemical detection of Nestin (Cy-3) and Insulin (Cy-2) as shown in FIG. 24A. […] Accordingly, treatment with Extendin-4 induced a 2- to 3-fold increase in insulin secretion (FIG. 25). However, in some culture wells, confluence alone was sufficient to initiate small amounts of insulin secretion."}, "[2]": {"system": "partial pancreatectomy rat model of type 2 diabetes", "conditions": "daily administration for 10 days post pancreatectomy; cited from earlier work"}, "[3]": {"system": "diabetic mice", "conditions": "cited from earlier work"}, "[4]": {"system": "islet mass", "experiment": "Islet mass after injection of GLP-1 into mice", "type": "in vivo", "conditions": "in 48 hours"}, "[5]": {"system": "nestin-positive NIPs", "experiment": "Intracellular Ca2+ concentration in single isolated NIPs", "type": "cell-based, human", "experimental": "The application of GLP-1 amide to single, isolated […] elevates levels of intracellular Ca^2+ concentration ([Ca^2+]i). Cells were plated onto gridded coverslips to permit subsequent immunohistochemical staining of the same cells to test for nestin expression."}}}
{"molecule": "exendin-4 [Extendin-4]", "values": [{"measurement": "Idx-1 immunostaining", "setting": "[1]", "value": "Idx-1 positive"}, {"measurement": "insulin immunostaining", "setting": "[1]", "value": "a subset of cells became insulin positive"}, {"measurement": "development of diabetes", "setting": "[2]", "value": "attenuated the development of diabetes"}]}
{"molecule": "glucagon-like peptide-1 (HDEFERHAEGTFTSDVSSYLEGQAAKEFIAWLVKGRG) [GLP-1, insulinotropic hormone glucagon-like peptide (GLP)-1 produced by the intestine]", "values": [{"measurement": "blood sugar levels", "setting": "[3]", "value": "effectively lowers their blood sugar levels"}, {"measurement": "insulin secretion", "setting": "[3]", "value": "stimulates insulin secretion"}, {"measurement": "increase of islet mass", "setting": "[4]", "value": 2, "unit": "fold"}, {"measurement": "Idx-1 immunostaining", "setting": "[1]", "value": "Idx-1 positive"}, {"measurement": "insulin immunostaining", "setting": "[1]", "value": "a subset of cells became insulin positive"}, {"measurement": "nestin expression of the cultures", "setting": "[1]; cultures treated with GLP-1", "value": "overall decrease in nestin expression"}, {"measurement": "[Ca2+]i levels", "setting": "[5]; basal (5.6 mM) glucose", "value": "stimulates [Ca^2+]i levels"}, {"measurement": "[Ca2+]i levels", "setting": "[5]; high (20 mM) glucose", "value": "ineffective"}]}
{"molecule": "Extendin (9-39): peptide, a specific antagonist of GLP-1 (GLP-1R antagonist)", "values": [{"measurement": "increase in [Ca2+]i mediated by GLP-1", "setting": "[5]; pretreatment of single isolated NIPs with antagonist", "value": "prevents the increase"}]}
{"molecule": "[La+3]", "note": "[La^3+]", "values": [{"measurement": "[Ca2+]i increase mediated by GLP-1", "setting": "[5]; extracellular La3+ 5 μM", "value": "inhibited"}]}
{"molecule": "CCCCNC(=O)NS(=O)(=O)c1ccc(C)cc1", "note": "[tolbutamide]", "values": [{"measurement": "[Ca2+]i elevation", "setting": "[5]; tolbutamide 100 μM", "value": "stimulates [Ca^2+]i elevation"}]}
